Laboratory results: US20250282770A1, “BIOLUMINESCENT PROBES TO TRACK STEM CELLS IN VIVO” (THE BOARD OF TRUSTEES OF THE UNIVERSITY OF ILLINOIS, priority 2024, published 2025)

Assays:
rat liver microsomes = assay: Stability of AlDeLuc to rat liver microsomes; format: in vitro ADME; conditions: 2 μM; RLM 0.25 to 5.0 ng/mL; NADPH; 37° C.
Method: Investigating the Stability of AlDeLuc to Rat Liver Microsomes. The stability of AlDeLuc (2 μM) in rat liver microsomes (RLM) was measured in a black 96-well plate and was monitored using the IVIS imaging system. To Eppendorf tubes containing potassium phosphate buffer (0.1 M, pH 7.4), RLM (0.25 ng/mL or 5 ng/mL), and AlDeLuc (2 μM) was added NADPH (50 μM in potassium phosphate buffer) and incubated at 37° C. for 15 minutes. In parallel, Eppendorf tubes with potassium phosphate buffer (0.1 M, pH 7.4), ALDH1A1 (0.4 μM), NAD^+ (1 mM), and AlDeLuc (2 μM, activated with acid) were warmed at 37° C. for 15 minutes. The solutions were transported to the laboratory housing the IVIS imaging system (˜10 minutes), transferred to a 96-well plate, and immediately administered ATP-MgSO4 (45 μL, prepared by mixing 17.78 mM ATP-Mg and 35.56 mM MgSO4 in a 1:1 ratio in PBS buffer) and luciferase (5 μL, 1 mg/mL in PBS containing 10% glycerol) to initiate bioluminescence production. Light was collected immediately after mixing, and the total luminescent counts were collected in each condition. The total volume of each well was 200 μL with 0.2% DMSO. All data reported as the mean±standard deviation (n=4).

[1] = test system: A549 human lung carcinoma cells; assay: AlDeLuc activation in A549 cells, lysate bioluminescence; format: cell-based
Method: Validation of ALDH-Mediated Activation of AlDeLuc in Human Lung Cancer Cells. A549 cells were cultured in T75 culture flasks. After two days, cells had become ˜90% confluent. An aliquot of HAMS FK12 media (1 mL) was removed from each flask and replaced with either disulfiram (DSF) (100 μM, 0.5% DMSO) or vehicle (0.5% DMSO). After incubation for one hour, the solutions were aspirated, the cells were washed with PBS, and resuspended in fresh HAMS FK12 media (9 mL). Each flask was then incubated with the AlDeLuc such that the final concentration of the probe is 100 µM and 1% DMSO. After 60 minutes this solution was aspirated, washed with fresh PBS, and detached from the culture flasks. The cells were then transferred to a 15 mL centrifuge tube and pelleted at 1000 rpm for 5 minutes at room temp. The cells were resuspended in PBS along with 10% protease inhibitor solution (1 protease inhibitor mini tablet per 10 mL of PBS, Pierce, Thermo Fisher Scientific) and sonicated on ice for 2.5 minutes (pulse 01, 01, 40%). […] ROIs were drawn around each well and the signal intensity was quantified using the Living Image Analysis software.
Determining Sensitivity of AlDeLuc by Cell Concentration Changes. […] ROIs were drawn around each well and the signal intensity was quantified using the Living Image Analysis software.

BALB/c mice = assay: Evaluation of systemic toxicity of AlDeLuc, H&E staining of organs; format: in vivo; conditions: 0.55 mg/kg systemic (retro-orbital); four hours
Method: Evaluation of Systemic Toxicity of AlDeLuc in BALB c mice. BALB/c mice were anesthetized and administered AlDeLuc or vehicle via retro-orbital injection (0.55 mg/kg, 1:19 v/v DMSO:PBS). After four hours, mice were euthanized, and their organs were harvested, fixed in formalin, and submitted to Veterinary Medicine for Hematoxylin and eosin staining.

β-Galactosidase = molecular target: T1, β-Galactosidase (Escherichia coli, UniProt P00722); assay: Stability of AlDeLuc to β-Galactosidase; format: biochemical; conditions: 10 μM; 1 unit of β-Gal
T1 construct: purchased Millipore-Sigma Aldrich
Method: Exploring the Stability of AlDeLuc to β-Galactosidase. The stability of AlDeLuc (10 μM) against β-Galactosidase (β-gal) was determined using a black 96-well plate and monitored using the IVIS imaging system. In a 96-well plate was added PBS (pH 7.4), β-gal (1 unit), and AlDeLuc. As a positive control to the same plate, was added PBS (pH 7.4), ALDH1A1 (0.4 μM), NAD^+ (1 mM), and acid activated AlDeLuc. Immediately after AlDeLuc was added, ATP-MgSO4 (45 μL, prepared by mixing 17.78 mM ATP-Mg and 35.56 mM MgSO4 in a 1:1 ratio in PBS buffer) and luciferase (5 μL, 1 mg/mL in PBS containing 10% glycerol) were administered to initiate bioluminescence production. Light was collected promptly after mixing, and the total luminescent counts were measured for both conditions. The total volume of each well was 200 μL with 0.1% DMSO. All data reported as the mean±standard deviation (n=4).

[2] = Stability in PBS or serum-containing media; format: physicochemical

T1 sequence (P00722 2-1024): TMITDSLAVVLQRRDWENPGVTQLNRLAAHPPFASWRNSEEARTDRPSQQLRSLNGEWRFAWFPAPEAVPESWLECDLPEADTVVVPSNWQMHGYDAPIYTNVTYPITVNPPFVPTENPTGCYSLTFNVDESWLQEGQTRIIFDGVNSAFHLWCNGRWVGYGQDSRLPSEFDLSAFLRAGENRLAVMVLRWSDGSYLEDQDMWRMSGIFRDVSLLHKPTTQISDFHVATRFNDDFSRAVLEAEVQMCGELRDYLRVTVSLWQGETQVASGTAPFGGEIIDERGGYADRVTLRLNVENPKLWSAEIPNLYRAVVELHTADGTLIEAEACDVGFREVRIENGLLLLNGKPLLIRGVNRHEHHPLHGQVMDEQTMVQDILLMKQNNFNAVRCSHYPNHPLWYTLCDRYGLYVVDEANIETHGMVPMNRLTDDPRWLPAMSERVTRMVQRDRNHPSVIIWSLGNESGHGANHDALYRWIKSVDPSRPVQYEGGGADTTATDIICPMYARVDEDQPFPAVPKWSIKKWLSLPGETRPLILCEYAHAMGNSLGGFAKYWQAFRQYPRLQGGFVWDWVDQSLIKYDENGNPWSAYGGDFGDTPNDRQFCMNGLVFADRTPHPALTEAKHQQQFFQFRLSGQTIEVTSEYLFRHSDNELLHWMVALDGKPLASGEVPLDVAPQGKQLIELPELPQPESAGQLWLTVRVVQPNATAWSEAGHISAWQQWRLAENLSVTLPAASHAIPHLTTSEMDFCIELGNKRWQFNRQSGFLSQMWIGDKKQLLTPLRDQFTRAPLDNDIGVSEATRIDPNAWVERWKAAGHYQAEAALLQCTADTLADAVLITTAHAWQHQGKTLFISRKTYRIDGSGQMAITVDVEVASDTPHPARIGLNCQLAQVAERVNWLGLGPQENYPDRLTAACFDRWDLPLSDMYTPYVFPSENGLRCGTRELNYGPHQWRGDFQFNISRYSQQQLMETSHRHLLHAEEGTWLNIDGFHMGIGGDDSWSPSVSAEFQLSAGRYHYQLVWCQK

Structure (SMILES): CCN(CC)c1ccc2nc(C3=N[C@@H](C(OC)OC)CS3)sc2c1 [AlDeLuc, (S)-2-(4-(dimethoxymethyl)-4,5-dihydrothiazol-2-yl)-N,N-diethylbenzo[d]thiazol-6-amine]
- bioluminescence after incubation with rat liver microsomes (rat liver microsomes): negligible bioluminescence
- bioluminescence intensity increase ([1]; 3.6×10^6 A549 cells, 100 μM, 60 min): 56 fold
- light emission relative to vehicle controls ([1]; ~1.25×10^5 A549 cells, 20 μM, one hour): 22.1 fold
- H&E stains of spleen, kidneys, lungs, heart, liver compared to vehicle animals (BALB/c mice): indistinguishable
- stability of acetal (β-Galactosidase): completely stable
- hydrolysis ([2]; PBS): does not hydrolyze
- hydrolysis ([2]; serum-containing media): does not hydrolyze
